What was measured:
[1] = target: T1, human adenosine A2A receptor (Homo sapiens, UniProt P29274); test: [3H]-SCH-58261 binding assay, human adenosine A2A receptor (CHO cell membranes, SPA); details: recombinant human A2A receptor in CHO membranes, [3H]-SCH-58261 1 nM; read-out: hA2 (pKi) (converted)
T1 construct: expressed in transfected cells; host or cells: CHO cells, semliki forest virus expression system; washed membranes
Procedure: Human Adenosine A2A Receptor
(§1) The human adenosine A2A receptor was recombinantly expressed in Chinese hamster ovary (CHO) cells using the semliki forest virus expression system. Cells were harvested, washed twice by centrifugation, homogenized and again washed by centrifugation. The final washed membrane pellet was suspended in a Tris (50 mM) buffer containing 120 mM NaCl, 5 mM KCl, 2 mM CaCl2 and 10 mM MgCl2 (pH 7.4) (buffer A). The [^3H]-SCH-58261 (Dionisotti et al., 1997, Br J Pharmacol 121, 353; 1 nM) binding assay was carried out in 96-well plates in the presence of 2.5 μg of membrane protein, 0.5 mg of Ysi-poly-1-lysine SPA beads and 0.1 U adenosine deaminase in a final volume of 200 μl of buffer A. Non-specific binding was defined using xanthine amine congener (XAC; 2 μM). Compounds were tested at 10 concentrations from 10 μM-0.3 nM. All assays were conducted in duplicate and repeated at least two times. Assay plates were incubated for 1 hour at room temperature before centrifugation and then bound ligand determined using a Packard Topcount scintillation counter. IC50 values were calculated using a non-linear curve fitting program and Ki values calculated using the Cheng-Prussoff equation.

[2] = target: T2, human adenosine A1 receptor (Homo sapiens, UniProt P30542); test: [3H]-DPCPX binding assay, human adenosine A1 receptor (CHO cell membranes, SPA); details: selectivity of hA2A versus hA1 binding
T2 construct: expressed in transfected cells; host or cells: CHO cells, semliki forest virus expression system; washed membranes
T2 sequence (P30542 1-326): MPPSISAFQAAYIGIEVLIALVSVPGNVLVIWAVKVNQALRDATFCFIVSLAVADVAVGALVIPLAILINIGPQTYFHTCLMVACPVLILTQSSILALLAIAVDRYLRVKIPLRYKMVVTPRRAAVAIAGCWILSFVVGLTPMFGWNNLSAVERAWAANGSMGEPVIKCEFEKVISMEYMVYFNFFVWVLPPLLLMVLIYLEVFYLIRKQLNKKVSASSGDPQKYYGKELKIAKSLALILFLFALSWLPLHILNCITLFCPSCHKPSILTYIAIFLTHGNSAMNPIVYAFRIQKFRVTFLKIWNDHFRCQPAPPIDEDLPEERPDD
Procedure: Human Adenosine A1 Receptor
as §1, with “A1” for “A2A”, “[^3H]-DPCPX (([propyl-^3H]8-cyclopentyl-1,3-dipropyxanthine); 0.6” for “[^3H]-SCH-58261 (Dionisotti et al., 1997, Br J Pharmacol 121, 353; 1”, “ligand was” for “ligand”

T1 sequence (P29274 whole entry): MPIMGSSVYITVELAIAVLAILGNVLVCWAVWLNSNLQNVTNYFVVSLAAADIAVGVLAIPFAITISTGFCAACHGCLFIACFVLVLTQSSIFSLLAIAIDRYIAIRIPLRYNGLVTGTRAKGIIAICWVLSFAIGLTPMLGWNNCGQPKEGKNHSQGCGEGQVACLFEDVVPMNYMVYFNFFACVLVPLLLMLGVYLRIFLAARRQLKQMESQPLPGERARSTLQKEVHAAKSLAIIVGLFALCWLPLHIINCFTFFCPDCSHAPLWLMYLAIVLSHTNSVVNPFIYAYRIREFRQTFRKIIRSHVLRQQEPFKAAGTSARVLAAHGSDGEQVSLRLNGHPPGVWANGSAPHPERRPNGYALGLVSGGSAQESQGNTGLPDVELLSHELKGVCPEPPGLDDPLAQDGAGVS

| Ki [1] | Selectivity to hA1 [2] | Structure (SMILES) |
| --- | --- | --- |
| 0.955 nM | 1758 | COc1ccc(C2COCCO2)c2sc(NC(=O)c3ccnc(C)c3)nc12 (single isomer, unassigned; (+)) [Example 15, (+)-N-(7-[1,4]Dioxan-2-yl-4-methoxy-benzothiazol-2-yl)-2-methyl-isonicotinamide] |
| 0.417 nM | 4503 | COc1ccc(C2COCCO2)c2sc(NC(=O)c3ccc(C)cc3)nc12 (single isomer, unassigned; (+)) [Example 34, (+)-N-(7-[1,4]Dioxan-2-yl-4-methoxy-benzothiazol-2-yl)-4-methyl-benzamide] |
| 0.832 nM | 1005 | COc1ccc(C2COCCO2)c2sc(NC(=O)c3ccc(F)cc3)nc12 (single isomer, unassigned; (+)) [Example 16, (+)-N-(7-[1,4]Dioxan-2-yl-4-methoxy-benzothiazol-2-yl)-4-fluoro-benzamide] |
| 1.23 nM | 2718 | CCOC1CN(c2cc(C(=O)Nc3nc4c(OC)ccc(C5COCCO5)c4s3)ccn2)C1 (single isomer, unassigned; (+)) [Example 31, (+)-N-(7-[1,4]Dioxan-2-yl-4-methoxy-benzothiazol-2-yl)-2-(3-ethoxy-azetidin-1-yl)-isonicotinamide] |
| 0.851 nM | 2319 | COc1ccc(C2COCCO2)c2sc(NC(=O)c3ccnc(N4CC(O)C4)c3)nc12 (single isomer, unassigned; (+)) [Example 49, (+)-N-(7-[1,4]Dioxan-2-yl-4-methoxy-benzothiazol-2-yl)-2-(3-hydroxy-azetidin-1-yl)-isonicotinamide] |
| 0.891 nM | 6138 | COc1ccc(C2COCCO2)c2sc(NC(=O)c3ccnc(N4CC(F)C4)c3)nc12 (single isomer, unassigned; (+)) [Example 30, (+)-N-(7-[1,4]Dioxan-2-yl-4-methoxy-benzothiazol-2-yl)-2-(3-fluoro-azetidin-1-yl)-isonicotinamide] |
| 0.676 nM | 3874 | COc1ccc(C2COCCO2)c2sc(NC(=O)c3ccnc(N4CCOCC4)c3)nc12 (single isomer, unassigned; (+)) [Example 17, (+)-N-(7-[1,4]Dioxan-2-yl-4-methoxy-benzothiazol-2-yl)-2-morpholin-4-yl-isonicotinamide] |
| 0.832 nM | 8832 | COc1cncc(C(=O)Nc2nc3c(OC)ccc(C4COCCO4)c3s2)c1 (single isomer, unassigned; (+)) [Example 53, (+)-N-(7-[1,4]Dioxan-2-yl-4-methoxy-benzothiazol-2-yl)-5-methoxy-nicotinamide] |
| 1.07 nM | 674 | COc1ccc(C2COCCO2)c2sc(NC(=O)c3cccc(F)c3)nc12 (single isomer, unassigned; (+)) [Example 39, (+)-N-(7-[1,4]Dioxan-2-yl-4-methoxy-benzothiazol-2-yl)-3-fluoro-benzamide] |
| 1.2 nM | 1828 | COc1cc(C(=O)Nc2nc3c(OC)ccc(C4COCCO4)c3s2)ccn1 (single isomer, unassigned; (+)) [Example 14, (+)-N-(7-[1,4]Dioxan-2-yl-4-methoxy-benzothiazol-2-yl)-2-methoxy-isonicotinamide] |
| 0.708 nM | 1238 | COc1ccc(C(=O)Nc2nc3c(OC)ccc(C4COCCO4)c3s2)cc1 (single isomer, unassigned; (+)) [Example 33, (+)-N-(7-[1,4]Dioxan-2-yl-4-methoxy-benzothiazol-2-yl)-4-methoxy-benzamide] |

The remaining lines, values behind:

| Structure (SMILES) | Ki [1] | Selectivity to hA1 [2] |
| --- | --- | --- |
| COc1ccc(C2COCCO2)c2sc(NC(=O)c3ccnc(N4CCC(O)CC4)c3)nc12 (single isomer, unassigned; (+)) [Example 29, (+)-4-Hydroxy-3,4,5,6-tetrahydro-2H-[1,2′]bipyridinyl-4′-carboxylic acid (7-[1,4]dioxan-2-yl-4-methoxy-benzothiazol-2-yl)-amide] | 1.07 nM | 2850 |
| COc1ccc(C2COCCO2)c2sc(NC(=O)c3ccnc(C4=CCOCC4)c3)nc12 (racemic) [Example 5, (±)-2-(3,6-Dihydro-2H-pyran-4-yl)-N-(7-[1,4]dioxan-2-yl-4-methoxy-benzothiazol-2-yl)-isonicotinamide] | 1.45 nM | 1421 |
| COc1ccc(C2COCCO2)c2sc(NC(=O)c3ccc4c(c3)OCO4)nc12 (single isomer, unassigned; (+)) [Example 36, (+)-Benzo[1,3]dioxole-5-carboxylic acid (7-[1,4]dioxan-2-yl-4-methoxy-benzothiazol-2-yl)-amide] | 0.537 nM | 1411 |
| COc1ccc(C2COCCO2)c2sc(NC(=O)c3ccnc(N4CCC4)c3)nc12 (single isomer, unassigned; (+)) [Example 18, (+)-2-Azetidin-1-yl-N-(7-[1,4]dioxan-2-yl-4-methoxy-benzothiazol-2-yl)-isonicotinamide] | 0.977 nM | 7378 |
| COc1ccc(C2COCCO2)c2sc(NC(=O)c3ccnc(OCCN4CCOCC4)c3)nc12 (single isomer, unassigned; (+)) [Example 52, (+)-N-(7-[1,4]Dioxan-2-yl-4-methoxy-benzothiazol-2-y)-2-(2-morpholin-4-yl-ethoxy)-isonicotinamide] | 0.501 nM | 3141 |
| COc1cccc(C(=O)Nc2nc3c(OC)ccc(C4COCCO4)c3s2)c1 (single isomer, unassigned; (+)) [Example 37, (+)-N-(7-[1,4]Dioxan-2-yl-4-methoxy-benzothiazol-2-yl)-3-methoxy-benzamide] | 0.724 nM | 10082 |
| COc1ccc(C2COCCO2)c2sc(NC(=O)c3ccnc(C4CCOCC4)c3)nc12 (racemic) [Example 6, (±)-N-(7-[1,4]Dioxan-2-yl-4-methoxy-benzothiazol-2-yl)-2-(tetrahydro-pyran-4-yl)-isonicotinamide] | 1.32 nM | 1582 |
| COc1ccc(C2COCCO2)c2sc(NC(=O)c3ccnc(N4CC(OC)C4)c3)nc12 (single isomer, unassigned; (+)) [Example 32, (+)-N-(7-[1,4]Dioxan-2-yl-4-methoxy-benzothiazol-2-yl)-2-(3-methoxy-azetidin-1-yl)-isonicotinamide] | 0.646 nM | 5404 |
